# Assay results taken from patent publication US7501512B2, “Chemical compounds” (SmithKline Beecham Corporation, priority 2003, dated 2009).
# Target: MAPKAP2 kinase (MK2) (Homo sapiens, UniProt P49137)
# Experiment: MAPKAP2 kinase (MK2) enzyme assay
# Type: biochemical
# Conditions: 1 nM recombinant MK2, 1 μM ATP, 1 μM peptide substrate; read-out: pIC50 values (converted)
# Protocol: Compounds are tested for MAPKAP2 kinase (MK2) inhibitory activity in an assay that measures the MK2 catalyzed transfer of the γ-phosphate from ATP to serine/threonine residues of a biotinylated peptide [NH2-K(biotin)-KLNRTLSVA (SynPep Corporation, USA)]. Compounds under analysis are dissolved in DMSO to 1 mM and serially diluted 3-fold with DMSO in 96 or 384-well polypropylene or polystyrene plates for a total of 10-12 different concentrations. One uL of each concentration is transferred to the corresponding well of a 96 or 384-well, white, polystyrene assay plate. Reactions are performed in a final volume of 26 uL. An ATP solution (10 uL) is added to each well, and the reaction is initiated by the addition of a MK2/peptide mix (15 uL). The ATP solution is made in H2O and consists of 2.6 μM nonradioactive ATP (SigmaUltra) and 6.5 uCi/mL [γ-^33P]-ATP (Amersham Pharmacia Biotech). The MK2/peptide mix consists of 86.7 mM HEPES (SigmaUltra), pH 7.5, 8.67 mM MgCl2 (SigmaUltra), 0.0043% Tween 20, 1.73 mM dithiothreitol (added fresh from frozen 1M stock), 1.73 μM peptide, and 1.73 nM purified recombinant MK2. Final concentrations of the assay components are 50 mM HEPES, pH 7.5, 5 mM MgCl2, 0.0025% Tween 20, 1 mM dithiothreitol, 1 μM ATP, 2.5 μCi/mL [γ-^33P]-ATP, 1 μM peptide substrate, and 1 nM MK2. The reaction is allowed to proceed for 40 minutes and is then terminated by the addition of ‘stop solution’ (20 uL), followed by the addition of ‘bead mix’ (50 uL). […] The plates are allowed to sit for approximately 8 hours and then are quantitated using a TopCount NXF™ (Packard). Alternatively, the plates are allowed to sit for at least approximately 1 hour, centrifuged at 900 rpm for 3 minutes, and then quantitated using a TopCount NXT™ (Packard). […] Percent inhibition of MK2 activity is calculated for each compound concentration using Equation [1] […]
# [formula] where Y2 is the baseline percent inhibition, Vmax is the net maximum percent inhibition (baseline subtracted), and K is the IC50. […] The results for each compound are recorded as pIC50, calculated using Equation [3]. pIC50=−log10([…]) (3)
# Chain of MAPKAP2 kinase (MK2) (P49137 whole entry, species assumed): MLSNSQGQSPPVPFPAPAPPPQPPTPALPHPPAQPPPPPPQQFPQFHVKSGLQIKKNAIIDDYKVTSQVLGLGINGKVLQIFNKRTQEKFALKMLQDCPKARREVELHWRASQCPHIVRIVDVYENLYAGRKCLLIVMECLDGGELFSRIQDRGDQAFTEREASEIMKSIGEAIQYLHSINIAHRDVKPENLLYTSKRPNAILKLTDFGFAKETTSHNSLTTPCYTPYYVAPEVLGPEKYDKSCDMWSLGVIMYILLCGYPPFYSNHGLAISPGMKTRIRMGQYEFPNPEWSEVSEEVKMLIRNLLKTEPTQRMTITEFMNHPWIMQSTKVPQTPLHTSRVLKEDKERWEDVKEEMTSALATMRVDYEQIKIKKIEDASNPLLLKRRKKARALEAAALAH
row,IC50 [nM],Structure (SMILES)
1,10 to 100,"COCCN(C)c1cc2n(c(=O)n1)CCc1cc(OC)ccc1-2 [Iy, 9-Methoxy-2-[(2-methoxy-ethyl)-methyl-amino]-6,7-dihydro-pyrimido[6,1-a]isoquinolin-4-one]"
2,102 to 1000,"COc1ccc2c(c1)CCn1c-2cc(Nc2cccc(S(N)(=O)=O)c2)nc1=O [If, 3-(9-Methoxy-4-oxo-6,7-dihydro-4H-pyrimido[6,1-a]isoquinolin-2-ylamino)-benzenesulfonamide]"
3,10 to 100,"COc1ccc2c(c1)CCn1c-2cc(NCCN2CCCC2)nc1=O [Iv, 9-Methoxy-2-(2-pyrrolidin-1-yl-ethylamino)-6,7-dihydro-pyrimido[6,1-a]isoquinolin-4-one]"

# Target: T1, hYAK3 (Homo sapiens, UniProt O43781)
# T1 construct: made in house; host or cells: baculovirus expression system in Sf9 cells
# T1 sequence (O43781 124-526): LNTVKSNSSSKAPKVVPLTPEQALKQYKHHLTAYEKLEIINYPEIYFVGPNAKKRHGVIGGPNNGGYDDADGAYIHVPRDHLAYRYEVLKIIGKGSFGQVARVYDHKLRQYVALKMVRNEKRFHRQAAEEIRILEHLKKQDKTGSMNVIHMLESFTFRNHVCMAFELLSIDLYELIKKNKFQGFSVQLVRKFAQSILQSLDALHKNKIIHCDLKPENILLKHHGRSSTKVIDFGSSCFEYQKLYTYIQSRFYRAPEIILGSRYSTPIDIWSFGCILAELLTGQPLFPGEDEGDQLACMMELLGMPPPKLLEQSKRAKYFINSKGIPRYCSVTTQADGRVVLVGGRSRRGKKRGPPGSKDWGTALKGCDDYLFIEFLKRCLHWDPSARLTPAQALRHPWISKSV
# Experiment: YAK3 scintillation proximity assay using Ser164 of myelin basic protein as phosphoacceptor
# Type: biochemical
# Conditions: purified GST-hYak3-His6, 0.001 mM ATP, 4 μM Ser164 peptide; read-out: pIC50 values (converted)
# Protocol: YAK3 Scintillation Proximity Assays Using Ser164 of Myelin Basic Protein as the Phosphoacceptor
# The source of Ser164 substrate peptide The biotinylated Ser164, S164A peptide (Biotinyl-LGGRDSRAGS*PMARR-OH), sequence derived from the C-terminus of bovine myelin basic protein (MBP) with Ser162 substituted as Ala162, was purchased from California Peptide Research Inc. (Napa, Calif.), and its purity was determined by HPLC. Phosphorylation occurs at position 164 (marked S* above). The calculated molecular mass of the peptide was 2166 dalton. Solid sample was dissolved at 10 mM in DMSO, aliquoted, and stored at −20° C. until use.
# hYAK3: Glutathione-S-Transferase (GST)-hYak3-His6 containing amino acid residues 124-526 of human YAK3 (aa 124-526 of SEQ ID NO 2. in U.S. Pat. No. 6,323,318) was purified from baculovirus expression system in Sf9 cells using Glutathione Sepharose 4B column chromatography followed by Ni-NTA-Agarose column chromatography. Purity greater than 65% typically was achieved. Samples, in 50 mM Tris, 150 mM NaCl, 10% glycerol, 0.1% Triton, 250 mM imidazole, 10 mM β-mercapto ethanol, pH 8.0. were stored at −80° C. until use.
# Kinase assay of purified hYAK3: Assays were performed in 96 well (Costar, Catalog No. 3789) or 384 well plates (Costar, Catalog No. 3705). Reaction (in 20, 25, or 40 μl volume) mix contained in final concentrations 25 mM Hepes buffer, pH 7.4; 10 mM MgCl2; 10 mM β-mercapto ethanol; 0.0025% Tween-20; 0.001 mM ATP, 0.1 μCi of [γ-^33P]ATP; purified hYAK3 (7-14 ng/assay; 4 nM final); and 4 μM Ser164 peptide. Compounds, titrated in DMSO, were evaluated at concentrations ranging from 50 μM to 0.5 nM. […] Reactions were incubated for 2 hours at room temperature and were stopped by a 75 ul addition of […] Streptavidin Scintillation Proximity beads (Amersham Pharmacia Biotech, Catalog No. RPNQ 0007) in PBS, pH 7.4, 10 mM EDTA, 0.1% Triton X-100, 1 mM ATP. Under the assay conditions defined above, the Km (apparent) for ATP was determined to be 7.2+/−2.4 μM.
row,Structure (SMILES),IC50 [nM]
1,"COc1ccc2c(c1)CCn1c-2cc(Nc2c(OC)cccc2OC)nc1=O [Ia, 2-(2,6-Dimethoxy-phenylamino)-9-methoxy-6,7-dihydro-pyrimido[6,1-a]isoquinolin-4-one]",10.2 to 100
2,"COc1ccc2c(c1)CCn1c-2cc(Nc2ccccc2Br)nc1=O [Ie, 2-(2-Bromo-phenylamino)-9-methoxy-6,7-dihydro-pyrimido[6,1-a]isoquinolin-4-one]",102 to 1000

# The next lines start with the values.
row,IC50 [nM],Structure (SMILES)
1,102 to 1000,"COc1ccc(CNc2cc3n(c(=O)n2)CCc2cc(OC)ccc2-3)cc1 [Iz, 9-Methoxy-2-(4-methoxy-benzylamino)-6,7-dihydro-pyrimido[6,1-a]isoquinolin-4-one]"
2,10.2 to 100,"COc1ccc2c(c1)CCn1c-2cc(NCCN(C)C)nc1=O [Iw, 2-(2-Dimethylamino-ethylamino)-9-methoxy-6,7-dihydro-pyrimido[6,1-a]isoquinolin-4-one]"
